Assay results: patent US20130225603A1, “MDM2 INHIBITORS FOR TREATMENT OF OCULAR CONDITIONS” (SERRATA LLC, priority 2010, published 2013)
Entries after “also recorded” stand apart in the source; their conditions may differ.

How the values were obtained:
HUVECs [1] = assay: Apoptosis of endothelial cells (HUVECs) in serum enriched media; assay type: cell-based, human
HRMECs [2] = assay: Cell viability/proliferation, HRMECs in serum; assay type: cell-based, human; conditions: racemic Nutlin-3
Experimental: (§1) Cells were seeded at a concentration of 2×10^5 for HUVECs and 2×10^4 for HUVSMCs in serum free media on 12 well plates after detachment. The cells were allowed to adhere overnight in growth media, and then incubated with X-VIVO media (Cambrex) with or without cytokines (10 ng/ml FGF-2 and 2 μg/ml heparin or 10 ng/ml VEGF-A). For HRMEC experiments, cells were seeded at a concentration of 1×10^5 and allowed to settle overnight in 6-cm plates coated with attachment factor (Cell Signaling, Danvers, Mass.). The next day, fresh 10% FBS and EBM medium was added. […] After incubation, HUVEC were detached with collagenase/EDTA and HUVSMC and HRMEC were detached with trypsin/EDTA. The cells were manually counted with a Hemacytometer (Hausser Scientific, Horsham, Pa.) using Trypan blue exclusion.

p53 [3] = assay: p53 expression in HRMECs; assay type: cell-based, human; conditions: racemic Nutlin-3, 10% FBS
Experimental: (§2) HUVECs and HUVSMCs were incubated at 2×10^6 in X-VIVO media and HRMECs in EBM with 10% FBS under various conditions as reported in the results. Western blot extracts were prepared by lysing cells attached cells in cold RIPA buffer in the presence of protease inhibitors for HUVEC and HUVSMC and passive lysis buffer (Promega, Madison, Wis.) for HRMEC. After sonication and centrifugation to remove cell debris, the protein yield was quantified using the BCA protein assay kit (Pierce Biotechnology Inc., Rockford, Ill.). Normalized cell lysates were then mixed with sample buffer containing 2-mercaptoethanol and SDS and heated for 5 minutes at 95° C. Equal amounts of protein were run on SDS-polyacrylamide gels before being transferred to PVDF membranes. Binding of the primary antibody against p53, p21, and beta actin was detected with enhanced chemiluminescence reagent (Amersham) using HRP-conjugated secondary antibody (1:10,000, Amersham).

[4] = system: retinal vasculature of mouse pups; assay: In vivo retinal vascular development assay (subcutaneous and periocular injection)
Experimental: A technique described by Strombland et al. was modified to study the effects of Nutlin-3 on in vivo vascular development (see Stromblad S, Fotedar A, Brickner H, et al., J. Biol. Chem. 277:13371-13374 (2002), which is incorporated herein by reference. Briefly, racemic Nutlin was administered by subcutaneous injection in the nape of the neck or in the periocular area of each eye to wild type 129 S1-VIMJ (Jackson Laboratories, Bar Harbor, Me.) mouse pups within 12 hours of birth. The mice received a total of 4 (periocular experiments) or 5 (subcutaneous neck experiments) injections of either racemic Nutlin or 100% DMSO. The first injection of Nutlin was administered at a dose of 40 mg/kg while the rest were given at a dose of 80 mg/kg for experiments involving injections in the nape of the neck. A dose of 80 mg/kg was administered for all injections in the periocular series of experiments. The pups were euthanized on postnatal day 3 and the eyes were enucleated after the fused eyelids incised.
The eyes were then fixed in 4% paraformaldeheyde overnight and washed three times with PBS. After removing the cornea and lens, the hyaloidal (primitive) vasculature was removed and four radial incisions were made in the eyecup to flatten the retina/choroid/sclera complex. The choroid and sclera were removed from the retina and cut at the optic nerve. After the retinal wholemount was blocked with 5% bovine serum albumin, 5% normal donkey serum, and 0.5% TritonX-100 for 3 hours or overnight, the wholemount was incubated with a 1:200 dilution of GS-IB4 lectin overnight and mounted with Vectashield (Vector Laboratories). For double staining wholemount experiments, retinas were incubated with primary antibody overnight at 4° C., underwent 6 one hour washes with PBS-T, followed by incubation with secondary antibody overnight at 4° C., followed by 6 one hour washes with PBS-T prior to being cover-slipped with Vectashield. Using a fluorescent biomicroscope (Carl Zeiss Discovery V12, Thornwood, N.Y.) hyaloidal vessels, vessels connected to the optic nerve, on the surface of the retina, were dissected in a masked manner. A confocal laser (Carl Zeiss LSM 510 meta) was used to obtain images of the retinal vasculature.
We captured images with the same laser power, objective, gain, pinhole, and amplifier offset. The resultant images were masked to the analyst assessing the images. All analyzed images were captured with a 5× objective and then exported to Adobe Photoshop 7.0 (San Jose, Calif.) as high-resolution .tiff images. Using the Magic Wand tool and histogram function, the analyst recorded the number of pixels that best represented the retinal vasculature and omitted the residual hyaloidal (fetal) vasculature that was unable to be removed during dissection. Blood vessels assessed to be residual hyaloid were found at a different focal plane than retinal blood vessels and were usually connected to the optic nerve.

[5] = system: retinal vessels of adult mice; assay: In vivo adult retinal vessel assay (intravitreal injection); parameters: species or system mouse; conditions: five days after injection
Experimental: Adult, three month old, 129 and C57/BL6/129S mice were anesthetized with Avertin and also given a drop of topical proparacaine 1% for local anesthesia. Using a stereo microscope, a glass capillary pipette was used to inject 1 μL of either vehicle or racemic Nutlin-3 into the vitreous of cavity of both eyes of each animal. Mice were then euthanized five days after injection. All procedures involving mice were approved and monitored by the Weill Medical College of Cornell University and Hospital for Special Surgery Animal Care and Use Committees. The eyes were then fixed in 4% paraformaldeheyde overnight and washed three times with PBS. After removing the cornea and lens, the hyaloidal (primitive) vasculature was removed and four radial incisions were made in the eyecup to flatten the retina/choroid/sclera complex. The choroid and sclera were removed from the retina and cut at the optic nerve. After the retinal wholemount was blocked with 5% bovine serum albumin, 5% normal donkey serum, and 0.5% TritonX-100 for 3 hours or overnight, the wholemount was incubated with a 1:200 dilution of GS-IB4 lectin overnight and mounted with Vectashield (Vector Laboratories). […]

HRMECs [6] = assay: Apoptosis of HRMECs in serum (TUNEL); assay type: cell-based, human; conditions: HRMECs in serum (10% FBS)
Experimental: (§3) HUVECs were plated on collagen coated plastic bottom culture dishes (MatTek Corp., Ashland, Mass.) overnight. […] HRMEC were treated with 15 μM of racemic Nutlin for 24 hours in 10% FBS. The TUNEL assay was performed following instructions provided with the kit (Roche Applied Science, Indianapolis, Ind.). Representative images of the HRMEC experiment were provided with a 4× objective using an Olympus AX70 fluorescence microscope following the addition of a nuclear counter stain. For HUVEC experiments, 5 representative fields with a 20× objective using a Zeiss confocal microscope were captured. 2 masked observers performed cell counts. For wholemount retina staining, TUNEL solution was incubated for 48 hours diluted in PBS plus 0.3% Triton-X 100 after lectin staining.

HUVECs [7] = assay: Cell proliferation assay, HUVECs (manual count, Trypan blue exclusion); assay type: cell-based, human; conditions: for HUVEC proliferation: 36 hours
Experimental: as §1
First, we performed a dose response curve on unstimulated and stimulated serum free HUVECs. […] HUVECs were either unchallenged or challenged with VEGF-A or FGF-2 during the incubation. […] Cell viability was measured at 12, 24, and 36 hours after incubation.

HUVECs [8] = assay: TUNEL assay for apoptosis, HUVECs; assay type: cell-based, human; conditions: serum free HUVEC, 7.5 μM, 24 hours, compared to control
Experimental: as §3

HUVECs [9] = assay: Flow cytometric analysis for apoptosis (annexin V/propidium iodide), HUVECs; assay type: cell-based, human; conditions: HUVEC, 7.5 μM, 24 hours, compared to the control
Description: (§4) HUVECs were detached with collagenase/EDTA and HUVSMCs were detached with trypsin/EDTA. The cells were then washed twice with PBS, and stained with propidium iodide and annexin V-FITC (Annexin V-FITC apoptosis detection kit I, Beckton Dickinson) according to the manufacturer's instructions.

[10] = system: p53 siRNA infected HUVECs; assay: Cell viability of p53 siRNA infected HUVECs; assay type: cell-based, human; conditions: 7.5 μM, FGF-2, 48 hours; p53 siRNA vs control siRNA
Experimental: Passage 3 HUVECs were grown to confluence. pRETRO-SUPER and pRETRO-SUPER-p53 viruses were produced by GP2 cells (Clontech, Mountain View, Calif.). Supernatant was filtered and then added to HUVECs in the presence of […] polybrene followed by 1 μg/ml of Puromycin selection for 7 days.
To determine if the p53 pathway is necessary for the observed Nutlin-3 mediated cellular effects, we infected HUVEC with retrovirus expressing either control short interfering RNA (siRNA) or p53 siRNA. […] (A and B) HUVECs were infected with a lentiviral vector expressing p53 siRNA or control siRNA for 48 hours and then underwent Puromycin selection for 72 hours.

p53 [11] = conditions: HUVEC, 8 hours, compared to Nutlin-3B or control
Experimental: as §2

HUVECs [12] = assay: Matrigel tube assay for in vitro angiogenesis; assay type: cell-based, human; conditions: FGF-2, 24 hours
Experimental: Matrigel matrix (Becton Dickinson, San Jose, Calif.) was kept on ice for 24 hours. Then, 200 ill of Matrigel were added to each well of a 24 well culture plate. After hardening the Matrigel at 37° C. for 30 minutes, gels were overlaid with 500 μl of X-VIVO medium containing 3×10^4 HUVECs. […] The effect of Nutlin was inspected 24 hours under an inverted light microscope. Nine overlapping images with a 10× objective were taken of each well to perform tubule length quantification. Adobe Photoshop 7.0 (Adobe Systems Inc., San Jose, Calif.) was used to make a montage image of each well. Each montage image was then imported into LSM Image Browser v3.5 (Carl Zeiss Inc., Thornwood, N.Y.) to measure tubule length. Tubule length was then standardized to the overall pixel area examined. A masked observer assessed all measurements.

HUVSMCs [13] = assay: Cell proliferation assay, HUVSMCs (manual count, Trypan blue exclusion); assay type: cell-based, human
Experimental: as §1

p53 [14] = assay: p53/p21 immunofluorescence and Western blot in HUVSMCs; assay type: cell-based, human; conditions: HUVSMC, 7.5 μM, within 8 hours
Experimental: as §2

HUVSMCs [15] = assay: Flow cytometric analysis for apoptosis (annexin V/propidium iodide), HUVSMCs; assay type: cell-based, human; conditions: HUVSMC, 7.5 μM, 36 hours, compared to control
Description: as §4

Structure (SMILES): COc1ccc(C2=NC(c3ccc(Cl)cc3)C(c3ccc(Cl)cc3)N2C(=O)N2CCNC(=O)C2)c(OC(C)C)c1 (racemic) [Nutlin-3, (±)-4-[4,5-bis(4-chlorophenyl)-2-(2-isopropoxy-4-methoxy-phenyl)-4,5-dihydro-imidazole-1-carbonyl]-piperazin-2-one]
- apoptosis of endothelial cells (HUVECs [1]): do not undergo apoptosis
- HRMEC cell viability (HRMECs [2]): sufficient to inhibit cell viability
- p53 expression in HRMECs (p53 [3]): upregulation of p53
- retinal vasculature compared to sham injected mice (images) ([4]; neonatal mice, periocular injection, FIG. 6E): less retinal vasculature
- fewer blood vessels compared to the sham-injected mice ([4]; neonatal mice, periorbital (periocular) injection, 80 mg/kg, postnatal day 3, p<0.01): 43.8%
- calibre of retinal vessels affected ([4]; neonatal mice, retinal wholemounts): loss of smaller caliber vessels; also recorded: preferentially targeted capillaries and smaller blood vessels
- reduction in the amount of retinal vessels compared to sham injected mice ([4]; neonatal mice, subcutaneous injection in the nape of the neck, 40 then 80 mg/kg, postnatal day 3, p<0.05): 27.4%
- retinal vasculature compared to sham injected mice (images) ([4]; neonatal mice, subcutaneous injection in the nape of the neck, FIG. 6B): abrogated
- TUNEL positive cells in the retinal vasculature ([4]; neonatal mouse retinal wholemount, GS-IB4 lectin co-staining, rare event): TUNEL positive cells that co-localized to the retinal endothelium
- thickness of the neuronal cell layers of the neurosensory retina (hematoxylin and eosin) [5]: did not observe any gross changes in the thickness of the neuronal cell layers
- retinal vasculature of adult mice compared to control ([5]; p>0.05): no reduction of the retinal vasculature; also recorded: no difference
- apoptosis in HRMECs (HRMECs [6]): induces apoptosis

Structure (SMILES): COc1ccc(C2=N[C@H](c3ccc(Cl)cc3)[C@H](c3ccc(Cl)cc3)N2C(=O)N2CCNC(=O)C2)c(OC(C)C)c1 [Nutlin-3B]
- HUVEC proliferation (HUVECs [7]; 10 μM): little effect on HUVEC proliferation

Structure (SMILES): COc1ccc(C2=N[C@@H](c3ccc(Cl)cc3)[C@@H](c3ccc(Cl)cc3)N2C(=O)N2CCNC(=O)C2)c(OC(C)C)c1 [Nutlin-3A]
- TUNEL positive cells (apoptosis) (HUVECs [8]): significantly more cells undergoing apoptosis
- HUVEC growth / cell viability, time course (HUVECs [7]; 7.5 μM, unstimulated, serum free HUVEC, by 36 hours): near complete cell death
- HUVEC proliferation (HUVECs [7]; 1, 5 or 10 μM, serum free HUVECs unchallenged or challenged with VEGF-A or FGF-2): inhibit HUVEC proliferation at all tested doses with greater activity at higher concentrations
- double positive annexin V and propidium iodide cells (late apoptosis) (HUVECs [9]): significantly more double positive annexin V and propidium iodide cells
- cell viability of p53 siRNA infected HUVECs [10]: p53 siRNA infected cells had become resistant
- p53 and p21 protein (Western blot) (p53 [11]): increased p53 protein, and its downstream target p21
- dose dependence of capillary tube formation inhibition (HUVECs [12]; 5 and 7.5 μM): dose dependent
- reduction in capillary tube formation (HUVECs [12]; HUVEC on Matrigel, compared to control): 93%
- HUVSMC proliferation, time course (HUVSMCs [13]; 7.5 μM, serum free HUVSMCs activated with FGF-2 or 5% FBS, at 48 to 72 hours): growth inhibited
- HUVSMC early response to increasing concentrations (HUVSMCs [13]; 7.5, 15, 30 μM, serum free, unchallenged HUVSMCs, at 36 hours, p>0.05): did not find an early response
- p53 response (immunofluorescence and Western blot) (p53 [14]): initiated a p53 response; also recorded: increased p53 expression
- annexin V and propidium iodide staining (apoptosis) (HUVSMCs [15]): no significant difference
